# In US20220265597A1, “ANTIVIRAL EFFECTS OF NARASIN IN SWINE FEED” (Elanco US Inc., priority 2014, published 2022):
# Marks after values point to notes of the source that are not given here.
# Assays:
# PEDV [1] = assay: Growth performance of nursery pigs challenged with PEDV, narasin in feed; format: in vivo, pig; conditions: for numerical increase of overall ADG compared to the control / numerical increase of overall G:F compared to the control: overall (Day 0 to 14)
# Source text: Eighty-one weaning stage (21.8+/−0.6 days) commercial crossbred piglets (Wilson's Prairie View Farms, Burlington, Wis.) free of PEDV infection arrived at the site and six were used as potential replacement animals during the pre-challenge period (Day −7 to Day 0). Six piglets were removed at Day 0 immediately prior to PEDV challenge, resulting in fifteen pens containing five piglets/pen (n=75) animals. There were five pens per treatment. For balance of sentinel piglets within a block, a total of thirty-nine piglets of one gender and thirty-six of the other gender were used. The use of five pens (twenty-five piglets) per treatment group was estimated to detect significant differences (P<0.10) between treatment groups in growth performance and incidence of viral shedding.
# (§1) The seventy-five piglets were randomly assigned to one of three treatment groups: control (no ionophore), narasin (30 mg/kg) and narasin (60 mg/kg). They acclimatized to their environment and were fed daily for seven days prior to exposure with PEDV on Day 0. Treatment continued for 14 days following challenge. Pigs from the three treatment groups were administered orally with 4×10^4 TCID50/mL of the PEDV isolate PEDV/USA/NC/2013/49469 (College of Veterinary Medicine, Iowa State University). The piglets were monitored daily for changes in clinical parameters, clinical score for diarrhea, depression and gauntness, rate of food consumption, and rate of body weight change and viral swabs were taken daily to determine viral shedding.
# Viral shedding values was evaluated by RMANOVA and the PROC MIXED procedure of SAS (SAS, Cary, N.C.). Other variables for analysis included growth performance data (average daily gain, or ADG; average daily feed intake, or ADFI; and feed efficiency (unit of weight gain per unit of feed consumed), or G:F), incidence and severity of diarrhea, depression, and gauntness scores, and intestinal histology score and immunohistochemistry. The analysis of the growth performance outcomes were conducted using a generalized linear mixed model and the PROC MIXED procedure of SAS.
# Diet formulations were manufactured at Provimi (Lewisburg, Ohio) and fed in meal form.
# The effects of narasin inclusion level on mean body weights (BW), average daily weight gain (ADG), average daily feed intake (ADFI), feed efficiency (G:F), and feed conversion ratio (F:G) are shown in Table 1.
# PEDV [2] = assay: Enteric clinical observation scoring (diarrhea, depression, gauntness) of nursery pigs challenged with PEDV; format: in vivo, pig; conditions: 0, 30, 60 mg/kg feed; 14-d period
# Procedure: as §1
# Incidence and severity of the score data (diarrhea, depression, and gauntness) were summarized by frequencies and mean scores on a daily basis.
# Table 2 indicates the scoring system used to measure diarrhea, depression, and gauntness. Table 3 compares the mean scores for diarrhea, depression and gauntness in nursery pigs whose diet included 0, 30 or 60 mg/kg narasin.
# [3] = 60 mg/kg feed, Day 0 to 5, P<0.10
compound,measurement,setting,value
CC[C@@H](C(=O)O)[C@@H]1O[C@@H]([C@@H](C)[C@H](O)[C@H](C)C(=O)[C@H](CC)[C@H]2O[C@]3(C=C[C@@H](O)[C@]4(CC[C@@](C)([C@H]5CC[C@](O)(CC)[C@H](C)O5)O4)O3)[C@H](C)C[C@@H]2C)[C@@H](C)C[C@@H]1C [narasin],effect of narasin level on overall growth performance,"PEDV [1]; 0, 30, 60 mg/kg feed, Day 0 to 14, P>0.10",no effect
same,"differences for ADG, ADFI, G:F, or F:G","PEDV [1]; 0, 30, 60 mg/kg feed, Day 5 to 14",no statistical differences
same,BW,"PEDV [1]; 30 mg/kg feed, Day 0 (PEDV challenge)",16.9 lb
same,ADFI,"PEDV [1]; 30 mg/kg feed, Day 0 to 5",0.68 lb
same,ADG,"PEDV [1]; 30 mg/kg feed, Day 0 to 5",0.38* lb
same,F:G,"PEDV [1]; 30 mg/kg feed, Day 0 to 5",1.93 lb:lb
same,G:F,"PEDV [1]; 30 mg/kg feed, Day 0 to 5",0.551 lb:lb
same,increase of ADG compared to the control,"PEDV [1]; 30 mg/kg feed, Day 0 to 5, P<0.10",58.3%
same,ADFI,"PEDV [1]; 30 mg/kg feed, Day 0 to 14",1.00 lb
same,ADG,"PEDV [1]; 30 mg/kg feed, Day 0 to 14",0.70 lb
same,F:G,"PEDV [1]; 30 mg/kg feed, Day 0 to 14",1.48 lb:lb
same,G:F,"PEDV [1]; 30 mg/kg feed, Day 0 to 14",0.711 lb:lb
same,BW,"PEDV [1]; 30 mg/kg feed, Day 5",18.7 lb
same,ADFI,"PEDV [1]; 30 mg/kg feed, Day 5 to 14",1.23 lb
same,ADG,"PEDV [1]; 30 mg/kg feed, Day 5 to 14",0.92 lb
same,F:G,"PEDV [1]; 30 mg/kg feed, Day 5 to 14",1.38 lb:lb
same,G:F,"PEDV [1]; 30 mg/kg feed, Day 5 to 14",0.772 lb:lb
same,BW,"PEDV [1]; 30 mg/kg feed, Day 14",26.9 lb
same,BW,"PEDV [1]; 30 mg/kg feed, Day −7 (arrival, allotment)",14.9* lb
same,ADFI,"PEDV [1]; 30 mg/kg feed, Day −7 to 0",0.37 lb
same,ADG,"PEDV [1]; 30 mg/kg feed, Day −7 to 0",0.29 lb
same,F:G,"PEDV [1]; 30 mg/kg feed, Day −7 to 0",1.33 lb:lb
same,G:F,"PEDV [1]; 30 mg/kg feed, Day −7 to 0",0.802 lb:lb
same,numerical increase of overall ADG compared to the control,PEDV [1]; 30 mg/kg feed,7.7%
same,numerical increase of overall G:F compared to the control,PEDV [1]; 30 mg/kg feed,7.9%
same,BW,"PEDV [1]; 60 mg/kg feed, Day 0 (PEDV challenge)",16.7 lb
same,ADFI,"PEDV [1]; 60 mg/kg feed, Day 0 to 5",0.71 lb
same,ADG,"PEDV [1]; 60 mg/kg feed, Day 0 to 5",0.48* lb
same,F:G,"PEDV [1]; 60 mg/kg feed, Day 0 to 5",1.56 lb:lb
same,G:F,"PEDV [1]; 60 mg/kg feed, Day 0 to 5",0.670* lb:lb
same,increase of ADG compared to the control,PEDV [1]; [3],100%
same,increase of G:F compared to 0 mg/kg narasin,PEDV [1]; [3],78.7%
same,ADFI,"PEDV [1]; 60 mg/kg feed, Day 0 to 14",1.01 lb
same,ADG,"PEDV [1]; 60 mg/kg feed, Day 0 to 14",0.70 lb
same,F:G,"PEDV [1]; 60 mg/kg feed, Day 0 to 14",1.44 lb:lb
same,G:F,"PEDV [1]; 60 mg/kg feed, Day 0 to 14",0.698 lb:lb
same,BW,"PEDV [1]; 60 mg/kg feed, Day 5",19.2 lb
same,ADFI,"PEDV [1]; 60 mg/kg feed, Day 5 to 14",1.22 lb
same,ADG,"PEDV [1]; 60 mg/kg feed, Day 5 to 14",0.85 lb
same,F:G,"PEDV [1]; 60 mg/kg feed, Day 5 to 14",1.42 lb:lb
same,G:F,"PEDV [1]; 60 mg/kg feed, Day 5 to 14",0.708 lb:lb
same,BW,"PEDV [1]; 60 mg/kg feed, Day 14",26.9 lb
same,BW,"PEDV [1]; 60 mg/kg feed, Day −7 (arrival, allotment)",14.9* lb
same,ADFI,"PEDV [1]; 60 mg/kg feed, Day −7 to 0",0.36 lb
same,ADG,"PEDV [1]; 60 mg/kg feed, Day −7 to 0",0.26* lb
same,F:G,"PEDV [1]; 60 mg/kg feed, Day −7 to 0",1.38 lb:lb
same,G:F,"PEDV [1]; 60 mg/kg feed, Day −7 to 0",0.742 lb:lb
same,decrease of ADG compared to the control,"PEDV [1]; 60 mg/kg feed, Day −7 to 0, P<0.10",18.8%
same,numerical increase of overall ADG compared to the control,PEDV [1]; 60 mg/kg feed,7.7%
same,numerical increase of overall G:F compared to the control,PEDV [1]; 60 mg/kg feed,5.9%
same,effect of narasin level on mean of depression scores,PEDV [2],not affected
